Measured values reported in PubChem BioAssay (NCI).
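Here, GI50 denotes the concentration required for 50% inhibition of growth. TGI is the concentration that stops growth completely.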

Assays:
Test in all cases: NCI anticancer screen, dose series, 384-well format
[1] = tested on: 786-0 renal
[2] = tested on: A498 renal
[3] = tested on: A549 NSCLC
[4] = tested on: ACHN renal
[5] = tested on: BT-549 breast
[6] = tested on: CAKI-1 renal
[7] = tested on: CCRF-CEM leukemia
[8] = tested on: COLO 205 colon
[9] = tested on: DU-145 prostate
[10] = tested on: EKVX NSCLC
[11] = tested on: HCC-2998 colon
[12] = tested on: HCT-116 colon
[13] = tested on: HCT-15 colon
[14] = tested on: HL-60(TB) leukemia
[15] = tested on: HOP-62 NSCLC
[16] = tested on: HOP-92 NSCLC
[17] = tested on: HS 578T breast
[18] = tested on: HT29 colon
[19] = tested on: IGROV1 ovarian
[20] = tested on: K-562 leukemia
[21] = tested on: KM12 colon
[22] = tested on: LOX IMVI melanoma
[23] = tested on: M14 melanoma
[24] = tested on: MALME-3M melanoma
[25] = tested on: MCF7 breast
[26] = tested on: MDA-MB-231 breast
[27] = tested on: MDA-MB-435 melanoma
[28] = tested on: MDA-MB-468 breast
[29] = tested on: MOLT-4 leukemia
[30] = tested on: NCI-H226 lung
[31] = tested on: NCI-H23 lung
[32] = tested on: NCI-H322M lung
[33] = tested on: NCI-H460 NSCLC
[34] = tested on: NCI-H522 lung
[35] = tested on: NCI/ADR-RES ovarian
[36] = tested on: OVCAR-3 ovarian
[37] = tested on: OVCAR-4 ovarian
[38] = tested on: OVCAR-5 ovarian
[39] = tested on: OVCAR-8 ovarian
[40] = tested on: PC-3 prostate
[41] = tested on: RPMI-8226 leukemia
[42] = tested on: RXF 393 renal
[43] = tested on: SF-268 CNS
[44] = tested on: SF-295 CNS
[45] = tested on: SF-539 CNS
[46] = tested on: SK-MEL-28 melanoma
[47] = tested on: SK-MEL-5 melanoma
[48] = tested on: SK-OV-3 ovarian
[49] = tested on: SN12C renal
[50] = tested on: SNB-19 CNS
[51] = tested on: SNB-75 CNS
[52] = tested on: SR leukemia
[53] = tested on: SW-620 colon
[54] = tested on: T-47D breast
[55] = tested on: TK-10 renal
[56] = tested on: U251 glioblastoma
[57] = tested on: UACC-257 melanoma
[58] = tested on: UO-31 renal

## COc1c/c(=C2/C=c3ccccc3=N2)[nH]/c1=C/c1[nH]c(C)cc1C
[1]
  GI50: 13.8 nM
  TGI: 33.8 nM
[2]
  GI50: 81 nM
  TGI: 1070 nM
[3]
  GI50: 120 nM
  TGI: 385 nM
[4]
  GI50: 32.5 nM
  TGI: 123 nM
[5]
  GI50: 15.6 nM
  TGI: 58.2 nM
[6]
  GI50: 45.2 nM
  TGI: 269 nM
[7]
  GI50: 16.4 nM
  TGI: 32.8 nM
[8]
  GI50: 24.6 nM
  TGI: 68.9 nM
[9]
  GI50: 33.8 nM
  TGI: 1060 nM
[10]
  GI50: 24.5 nM
  TGI: 81.2 nM
[11]
  GI50: 17.1 nM
  TGI: 69 nM
[12]
  GI50: 17.2 nM
  TGI: 33.1 nM
[13]
  GI50: 17.9 nM
  TGI: 35.2 nM
[14]
  GI50: 17.3 nM
  TGI: 31.6 nM
[15]
  GI50: 24.1 nM
  TGI: 77.3 nM
[16]
  GI50: 23.9 nM
  TGI: 67.1 nM
[17]
  GI50: 26.3 nM
  TGI: 77.9 nM
[18]
  GI50: 21.9 nM
  TGI: 54.8 nM
[19]
  GI50: 30.9 nM
  TGI: 99.1 nM
[20]
  GI50: 62.9 nM
  TGI: 244 nM
[21]
  GI50: 27.8 nM
  TGI: 99.8 nM
[22]
  GI50: 17.7 nM
  TGI: 32.4 nM
[23]
  GI50: 22.3 nM
  TGI: 52.7 nM
[24]
  GI50: 27.2 nM
  TGI: 64.3 nM
[25]
  GI50: 32 nM
  TGI: 106 nM
[26]
  GI50: 19.3 nM
  TGI: 52.7 nM
[27]
  GI50: 23.6 nM
  TGI: 53.2 nM
[28]
  GI50: 197 nM
  TGI: 587 nM
[29]
  GI50: 14.9 nM
  TGI: 28.7 nM
[30]
  GI50: 15.3 nM
  TGI: 32.3 nM
[31]
  GI50: 24.7 nM
  TGI: 63 nM
[32]
  GI50: 56.4 nM
  TGI: 1140 nM
[33]
  GI50: 19.5 nM
  TGI: 41 nM
[34]
  GI50: 33.5 nM
  TGI: 220 nM
[35]
  GI50: 20.5 nM
  TGI: 40.5 nM
[36]
  GI50: 14.3 nM
  TGI: 34.6 nM
[37]
  GI50: 24.2 nM
  TGI: 158 nM
[38]
  GI50: 33 nM
  TGI: 1230 nM
[39]
  GI50: 19.6 nM
  TGI: 43.1 nM
[40]
  GI50: 17.8 nM
  TGI: 76.8 nM
[41]
  GI50: 19.7 nM
  TGI: 39.8 nM
[42]
  GI50: 14.2 nM
  TGI: 51.6 nM
[43]
  GI50: 19.3 nM
  TGI: 88.6 nM
[44]
  GI50: 35.1 nM
  TGI: 155 nM
[45]
  GI50: 31.6 nM
  TGI: 83.2 nM
[46]
  GI50: 24.4 nM
  TGI: 61.8 nM
[47]
  GI50: 19.4 nM
  TGI: 37.3 nM
[48]
  GI50: 52.3 nM
  TGI: 293 nM
[49]
  GI50: 40.6 nM
  TGI: 178 nM
[50]
  GI50: 54.5 nM
  TGI: 1290 nM
[51]
  GI50: 32.8 nM
  TGI: 85.2 nM
[52]
  GI50: 20.7 nM
  TGI: 35.3 nM
[53]
  GI50: 22.2 nM
  TGI: 47.2 nM
[54]
  GI50: 50.2 nM
  TGI: 194 nM
[55]
  GI50: 25.2 nM
  TGI: 65.5 nM
[56]
  GI50: 36.5 nM
  TGI: 132 nM
[57]
  GI50: 24.7 nM
  TGI: 53.7 nM
[58]
  GI50: 18.8 nM
  TGI: 35.3 nM
